# According to ChEMBL document CHEMBL1131345, “Synthesis of N-(1-ethyl-4-methylhexahydro-1,4-diazepin-6-yl)nicotinamides and their affinities for 5-HT3 and dopamine D2 receptors” (Bioorg Med Chem Lett, 1998):
# How the values were obtained:
# [1] = target: T1, Serotonin 3 (5-HT3) receptor (Rattus norvegicus, UniProt P35563+Q9JJ16); assay: Inhibition of [3H]GR-65630 binding to rat cortical membrane 5-hydroxytryptamine 3 receptor
# T1 sequence (P35563 whole entry): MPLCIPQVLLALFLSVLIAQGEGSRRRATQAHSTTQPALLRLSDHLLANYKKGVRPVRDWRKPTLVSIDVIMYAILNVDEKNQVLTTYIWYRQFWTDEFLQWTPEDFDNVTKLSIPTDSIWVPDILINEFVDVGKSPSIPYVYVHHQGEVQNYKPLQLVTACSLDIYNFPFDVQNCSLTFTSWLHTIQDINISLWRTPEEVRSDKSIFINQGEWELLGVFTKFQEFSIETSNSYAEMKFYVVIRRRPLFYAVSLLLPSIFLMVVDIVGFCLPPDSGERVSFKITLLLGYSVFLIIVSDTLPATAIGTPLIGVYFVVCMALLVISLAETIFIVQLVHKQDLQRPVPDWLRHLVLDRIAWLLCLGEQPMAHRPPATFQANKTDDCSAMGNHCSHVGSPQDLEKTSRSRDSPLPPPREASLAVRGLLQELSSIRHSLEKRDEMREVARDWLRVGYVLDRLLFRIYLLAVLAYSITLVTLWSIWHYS
# T1 sequence (Q9JJ16 whole entry): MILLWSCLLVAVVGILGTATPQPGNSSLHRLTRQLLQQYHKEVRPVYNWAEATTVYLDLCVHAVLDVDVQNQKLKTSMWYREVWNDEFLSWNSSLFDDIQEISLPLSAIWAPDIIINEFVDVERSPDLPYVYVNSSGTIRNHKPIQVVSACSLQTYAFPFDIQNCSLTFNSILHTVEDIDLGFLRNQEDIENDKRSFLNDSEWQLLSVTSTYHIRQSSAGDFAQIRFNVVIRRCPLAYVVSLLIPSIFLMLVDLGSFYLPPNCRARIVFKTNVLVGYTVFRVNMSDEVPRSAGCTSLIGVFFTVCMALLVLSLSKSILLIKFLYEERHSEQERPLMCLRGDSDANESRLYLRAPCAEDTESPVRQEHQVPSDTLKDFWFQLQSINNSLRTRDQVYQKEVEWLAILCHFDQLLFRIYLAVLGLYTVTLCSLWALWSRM
# D(2) dopamine receptor = D(2) dopamine receptor (Rattus norvegicus, UniProt P61169); assay: Inhibition of [3H]- spiperone binding to rat brain Dopamine receptor D2
# D(2) dopamine receptor, sequence (P61169 whole entry): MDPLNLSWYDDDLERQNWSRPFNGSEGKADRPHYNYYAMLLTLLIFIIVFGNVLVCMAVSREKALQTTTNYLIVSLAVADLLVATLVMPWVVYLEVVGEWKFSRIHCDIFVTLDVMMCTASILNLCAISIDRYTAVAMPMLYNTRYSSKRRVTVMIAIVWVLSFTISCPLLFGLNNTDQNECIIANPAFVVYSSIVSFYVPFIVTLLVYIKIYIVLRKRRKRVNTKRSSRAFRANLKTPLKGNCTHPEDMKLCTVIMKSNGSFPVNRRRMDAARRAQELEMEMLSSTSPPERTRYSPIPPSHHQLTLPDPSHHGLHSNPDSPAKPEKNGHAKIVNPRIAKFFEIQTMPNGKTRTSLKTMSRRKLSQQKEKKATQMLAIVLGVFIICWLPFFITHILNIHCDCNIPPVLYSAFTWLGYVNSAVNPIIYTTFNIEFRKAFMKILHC
SMILES,IC50 [1],IC50 (D(2) dopamine receptor)
CCNc1nc(OC)c(C(=O)NC2CN(C)CCN(CC)C2)cc1Br (stereo not drawn),3.8 nM,48 nM
CCN1CCN(C)CC(NC(=O)c2cc(Cl)c(N)nc2OC)C1 (stereo not drawn),5.1 nM,386 nM
CCN1CCN(C)CC(NC(=O)c2cc(Br)c(N(C)C)nc2OC)C1 (stereo not drawn),9.9 nM,75 nM
CCNc1nc(OC)c(C(=O)NC2CN(C)CCN(CC)C2)cc1Cl (stereo not drawn),2 nM,76 nM
CCN1CCN(C)C[C@@H](NC(=O)c2cc(Cl)c(NC)nc2OC)C1,1.6 nM,18 nM
CCN1CCN(C)CC(NC(=O)c2cc(Cl)c(NC)nc2OC)C1 (stereo not drawn),1.3 nM,43 nM
CCN1CCN(C)C[C@@H](NC(=O)c2cc(Cl)c(NC)cc2OC)C1,2.9 nM,35 nM
CCN1CCN(C)C[C@H](NC(=O)c2cc(Br)c(NC)nc2OC)C1,1.2 nM,81 nM
CCN1CCN(C)CC(NC(=O)c2cc(Br)c(NC)nc2OC)C1 (stereo not drawn),1 nM,23 nM
CCN1CCN(C)C[C@@H](NC(=O)c2cc(Br)c(NC)nc2OC)C1,1.1 nM,12 nM
CCN1CCN(C)C[C@H](NC(=O)c2cc(Cl)c(NC)nc2OC)C1,2.1 nM,202 nM
CCN(CC)CCNC(=O)c1cc(Cl)c(N)cc1OC [METOCLOPRAMIDE],880 nM,–
